# “Also recorded” adds a separate entry of the source. Read-outs that look alike come from different tables or passages of the source. Marks after values point to notes of the source that are not given here.
# Assays:
# TA97 = assay: Ames test, Petri dish mixing method, TA97; type: cell-based; details: TA97 −S9, positive control, dose not given
# Protocol: (§1) Test bacteria (TA97, TA98, TA100, TA102) were supplied by the Bureau of Food Inspection, Department of Health in Beijing. […] Using the Petri dish mixing method, two independent tests were carried out.
# TA98 = assay: Ames test, Petri dish mixing method, TA98; type: cell-based; details: TA98 −S9, positive control, dose not given
# Protocol: as §1
# NIH mice [1] = assay: Mouse sperm deformation test; type: in vivo; details: 0.04 g/kg, abdominal injections
# Excerpt: 3. Sperm Deformation Test
# Twenty five (25) NIH mice with body weights of 18-22 g, randomly divided into 5 groups and continuously force fed for 5 days (the Endoxan positive group received abdominal injections), were used in this test. Thirty five (35) days later, the animals were sacrificed and both testicles were taken out for the standard biopsy preparation and staining. Five thousand (5000) whole sperm from each group were examined under an oil immersion lens and the sperm deformation percentage was calculated.
# NIH mice [2] = details: for No. of micronuclei: 10000 cells
# Protocol: Test material: The GLSs were brown powders. After going through a 100 mesh sieve, 120 g of the samples were mixed with 300 mL distilled water (to give a concentration of 40 g/dL) and stirred for 15 min in a stirrer at 7000 rpm. They were then bottled, underwent disinfection and antiseptic treatments, and 1 mL of a pasty liquid was obtained, which was about 0.4 g of the samples. Direct gavage was carried out two times per day.
# Mouse Bone Marrow Micronucleus Test:
# Seventy (70) NIH mice with body weights of 20-23 g were used in this test. The mice were divided into 7 groups and testing was carried out according to the methods of the Toxicological Evaluation Procedures for Food Safety. Gavage was carried out twice, and 6 hrs after the second force feeding, the mice were sacrificed, and both of the femurs were taken out for the preparation of a biopsy, staining and examination under a microscope.
# TA100 = assay: Ames test, Petri dish mixing method, TA100; type: cell-based; details: TA100 −S9, positive control, dose not given
# Protocol: as §1
# SLE mice = assay: T-lymphocyte populations in SLE mice under different treatments; type: in vivo
# Protocol: Spleens, lymph nodes, and thymus glands were collected under sterile conditions from the DBA/2 or BALB/C mice. Lymphocytes were then isolated and washed with Hanks solution 3 times. Cells were stained with 0.5% trypan blue and examined for viability. The lymphocytes were then adjusted to the desired concentrations.
# Kidney tissues were sampled and undergone morphologic analyses under light scope.
# Statistical analyses and t test, were carried out using SPAAS 10.0 computer software.
# [3] = blood at 168 hours after the first dosing, daily oral, GLSs 0.8 g/kg/day, prednisolone solution 50 mL/kg/day
compound,measurement,setting,value
CCN(CC)CCCC(C)Nc1c2ccc(Cl)cc2nc2ccc(OC)cc12 (centres unmarked) [Atabrine],colonies due to reverse mutation,TA97,>1500
same,colonies due to reverse mutation,TA98,>1433
O=P1(N(CCCl)CCCl)NCCCO1 (centres unmarked) [Endoxan],No of deformed sperm (count),NIH mice [1]; 5000 sperm,98
same,Percentage deformation,NIH mice [1]; p < 0.01 vs other groups,72.80**
same,No. of micronuclei,NIH mice [2]; listed as printed '(0.06)' g/kg under Endoxan,249
same,Percentage of micronuclei,"NIH mice [2]; listed as printed '(0.06)' g/kg under Endoxan, p < 0.001 vs other groups",24.9** 0/00
same,Percentage of micronuclei,NIH mice [2]; listed as printed '^ Endoxan',1.2 0/00
same,No. of micronuclei,NIH mice [2]; listed as printed '^ Endoxan',12
[N-]=[N+]=[N-] [Sodium azide],colonies due to reverse mutation,TA100,>1500
C[C@]12C=CC(=O)C=C1CC[C@@H]1[C@@H]2[C@@H](O)C[C@@]2(C)[C@H]1CC[C@]2(O)C(=O)CO [prednisolone],"T %, Th %, Ts % and Th/Ts ratio compared with control groups",SLE mice; 168 hours after the first dosing,much better than those in the SLE control group; also recorded: improved the T cell counts in similar degree as those of GLSs
same,T(%),SLE mice; [3],51.30 ± 4.23%
same,Th (%),SLE mice; [3],31.44 ± 3.21%
same,Th/Ts,SLE mice; [3],1.12 ± 0.31
same,Ts (%),SLE mice; [3],28.43 ± 3.12%

# Source: patent US6893641B2, “Ganoderma lucidum spores for treatment of autoimmune diseases” (priority 1999, dated 2005)
